These results are taken from ChEMBL document CHEMBL3813672, “Discovery of anti-cancer activity for benzo[1,2,4]triazin-7-ones: Very strong correlation to pleurotin and thioredoxin reductase inhibition” (Bioorg Med Chem, 2016).

A word on the IC50: it is the midpoint of a concentration-inhibition curve.

A value given as a limit tells only on which side of the number the result lay.

Test [1] in a line: Cytotoxicity against human GM00637 cells assessed as reduction in cell viability after 72 hrs by MTT assay. The format is cell-based. The note with it: GM00637, 72 h. (Tetrazolium dyes change colour on reduction, which living cells bring about.)
Test [2] can be described thus: Cytotoxicity against human DU145 cells assessed as reduction in cell viability after 72 hrs by MTT assay. The format is functional, cell-based. The following applies: DU-145, 72 h.
The next test deals with MCF7. Nature of the test: Cytotoxicity against human MCF7 cells assessed as reduction in cell viability after 72 hrs by MTT assay. The format is functional, cell-based. The note with it: MCF7, 72 h.
A short description of test [3]: Inhibition of recombinant human TRX1/human placental thioredoxin reductase using DTNB as substrate in presence of NADPH by spectrophotometric method.
A further test has as its target Thioredoxin reductase (Homo sapiens, UniProt Q16881+Q9NNW7+Q86VQ6). In words: Irreversible inhibition of thioredoxin reductase (unknown origin). The format is protein assay.

For `COc1cc2nc(-c3ccccc3)nn(-c3ccccc3)c-2cc1=O`, the IC50 (in test [1]; in test [2]; with MCF7) was over 5000 nM throughout.

As to `CCN(CC)c1cc2nc(-c3ccccc3)nn(-c3ccccc3)c-2cc1=O`, the concentration for half-maximal inhibition (IC50) is 2730 nM in test [1], 3110 nM in test [2] and over 5000 nM in the test with MCF7.

With `O=c1cc2n(-c3ccccc3)nc(-c3ccccc3)nc-2cc1N1CCCC1`, the figures for the IC50 (in test [1]; in test [2]; with MCF7) were 1790 nM, 2460 nM and 360 nM, respectively.

As for `O=c1cc2n(-c3ccccc3)nc(-c3ccccc3)nc-2cc1N1CCCCC1`, the results for the half-inhibitory concentration (IC50) (in test [1]; in test [2]; in the test with MCF7) were 1190 nM, 610 nM and 1980 nM, respectively.

Regarding `O=c1cc2n(-c3ccccc3)nc(-c3ccccc3)nc-2cc1N1CCOCC1`, the results for the IC50 (in test [1]; in test [2]; in the test with MCF7) were 2290 nM, 3210 nM and 2370 nM, respectively.

On to `O=c1cc2n(-c3ccccc3)nc(-c3ccccc3)nc-2cc1N1CCSCC1`, for which the values for the half-maximal inhibitory concentration (IC50) (in test [1]; in test [2]; with MCF7) were 1630 nM, 1220 nM and 970 nM, respectively.

`CCNc1cc2nc(-c3ccccc3)nn(-c3ccccc3)c-2cc1=O`: the values for the half-inhibitory concentration (IC50) (in test [1]; in test [2]; in the test with MCF7) were 240 nM, 220 nM and 1620 nM, respectively.

For the molecule `CCOc1cc2nc(-c3ccccc3)nn(-c3ccccc3)c-2cc1=O`, the 50% inhibitory concentration (IC50) (in test [1]; in test [2]; in the test with MCF7) was over 5000 nM in each case.

On to `CC(=O)Nc1cc2nc(-c3ccccc3)nn(-c3ccccc3)c-2cc1=O`, for which the IC50 (in test [1]; in test [2]; with MCF7) was over 5000 nM each time.

For `Nc1cc2nc(-c3ccccc3)nn(-c3ccccc3)c-2cc1=O`, the IC50 came to 2040 nM in test [1], 1830 nM in test [2] and 950 nM in the test with MCF7.

On to `C[C@@H]1CO[C@@H]2C3=C(C(=O)C=CC3=O)[C@H]3OC(=O)[C@@H]4CC[C@H]5C1CC[C@@]25[C@@H]34`, for which the IC50 in test [1] was determined as 510 nM; in test [2], 430 nM; in the test on MCF7, 280 nM; in test [3], 170 nM. Besides, the Ki at Thioredoxin reductase was found to be 280 nM.

With `CNc1cc2nc(-c3ccccc3)nn(-c3ccccc3)c-2cc1=O`, the IC50 is 930 nM in test [1], 980 nM in test [2] and 690 nM in the test on MCF7.
